Ten molecules from ChEMBL document CHEMBL1201862, “PubChem BioAssay data set” (2004) can be followed below.

Values joined by “and” are separate entries in the source; they are usually repeats but may differ in a detail not shown here. Identical values can stand only once.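 Step 1: Grow cells in 96-well plates. Step 2: Expose to compound for 48 hours at 5 concentrations. Step 3: Interpolate endpoints linearly; if unreached, use highest concentration. GI50: concentration for 50% inhibition of growth.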 Active and inactive are the calls of the source. Rule as the data show it: active = GI50 up to about 1.1 µM and inactive = higher.

Holding throughout (assay): NCI anticancer screen, dose series, 48 h
For assay [1], the system named is SF-295.
For assay [2], the system named is MCF7.
Assay [3] deals with SK-MEL-28.
Assay [4] deals with M14.
Assay [5] deals with MDA-N.
In assay [6] the test system is CAKI-1.
Assay [7] deals with 786-0.
In assay [8] the test system is RPMI-8226.
For assay [9], the system named is SN12C.
For assay [10], the system named is HL-60.
Assay [11] deals with SF-268.
For assay [12], the system named is CCRF-CEM.
In assay [13] the test system is MDA-MB-231.
Assay [14] relates to SK-OV-3.
Assay [15] relates to UACC-257.
Assay [16] relates to Hs-578T.
Assay [17] concerns TK-10.
Assay [18] relates to SW-620.
For assay [19], the system named is U-251.
Assay [20] deals with UACC-62.

For the molecule `O=C(Cc1nccc2c1[nH]c1ccccc12)OC1C#CCSCC#C/C=C\1` (centres undefined), the GI50 is 87.9 µM (inactive) in assay [1]; > 100 µM (inactive) in [2]; > 100 µM (inactive) in [3]; > 100 µM (inactive) in assay [4]; > 100 µM (inactive) in assay [5]; > 100 µM (inactive) in assay [6]. Further, the GI50 in assay [7] is > 100 µM (inactive); in assay [8], > 100 µM (inactive); in assay [9] it was > 100 µM (inactive); in [10], 57 µM (inactive); in [11] it was > 100 µM (inactive); in [12] it was 38.8 µM (inactive). Besides, the GI50 in assay [13], in assay [14], in [15], in assay [16], in assay [17] and in [18] was > 100 µM (inactive) each time. In addition, the GI50 in assay [19] and in assay [20] was > 100 µM (inactive) in each case.

As to `O=c1c(Br)cc2c(-c3ccccc3)c3cc(Br)c(O)c(Br)c3oc-2c1Br`, the GI50 is 84.9 µM (inactive) in [1]; 79.3 µM (inactive) in [2]; > 100 µM (inactive) in assay [3]; > 100 µM (inactive) in assay [4]; > 100 µM (inactive) in assay [5]; > 100 µM (inactive) in assay [6]. Also, the GI50 was > 100 µM (inactive) in assay [7]; > 100 µM (inactive) in assay [8]; > 100 µM (inactive) in [9]; 51.6 µM (inactive) in assay [10]; > 100 µM (inactive) in assay [11]; > 100 µM (inactive) in assay [12]. The GI50 in assay [13] was > 100 µM (inactive); in assay [14], 48.4 µM (inactive); in assay [15], > 100 µM (inactive); in assay [16], > 100 µM (inactive); in assay [17] it was > 100 µM (inactive); in [18] it was > 100 µM (inactive). The GI50 in assay [19] and in assay [20] was > 100 µM (inactive) each time.

Consider `CCNC(=S)/N=c1\sc(NCC)nc2sc3c(c12)CCN(N1CCc2c(sc4nc(NCC)s/c(=N\C(=S)NCC)c24)C1)C3`, for which the GI50 in assay [1] was 72.4 µM (inactive); in assay [2], > 100 µM (inactive); in assay [3], 92 µM (inactive); in assay [4], 46.5 µM (inactive); in assay [5] it was 91.4 µM (inactive); in assay [6] it was > 100 µM (inactive). Also, the GI50 in assay [7] was 26.6 µM (inactive); in assay [9], > 100 µM (inactive); in assay [10], 98.2 µM (inactive); in [11] it was > 100 µM (inactive); in assay [12], 41.9 µM (inactive); in assay [13], 29.5 µM (inactive). For the same molecule, the GI50 was > 100 µM (inactive) in assay [14]; > 100 µM (inactive) in assay [15]; > 100 µM (inactive) in [16]; > 100 µM (inactive) in assay [17]; 34.7 µM (inactive) in assay [18]; 33.3 µM (inactive) in assay [19]. Besides, in assay [20], the GI50 was > 100 µM (inactive).

As for `COc1ccccc1[C@@H]1CCC2CC[C@@H](c3ccccc3OC)[N+]21Cc1ccccc1` (some centres undefined), the GI50 in assay [1] is 2.33 µM (inactive); in assay [2] it was 0.581 µM (active); in assay [3], 3.56 µM (inactive); in assay [4] it was 2.24 µM (inactive); in [5] it was 0.632 µM (active); in assay [6] it was 3.87 µM (inactive). The GI50 in assay [7] was 1.94 µM (inactive); in [8] it was 0.211 µM (active); in assay [9], 2.54 µM (inactive); in [10], 0.478 µM (active); in [11], 3.64 µM (inactive); in assay [12], 1.73 µM (inactive). Moreover, the GI50 is 1.95 µM (inactive) in assay [13]; 2.84 µM (inactive) in assay [14]; 0.521 µM (active) in [15]; 4.49 µM (inactive) in [16]; 5.74 µM (inactive) in assay [17]; 2.6 µM (inactive) in assay [18]. Moreover, in assay [19], the GI50 was 0.385 µM (active).

Consider `CCOC(=O)Nc1ccc2c(c1)c(CCCCCCc1nc3ccccc3c3ccc(NC(=O)OCC)cc13)nc1ccccc12`, for which the GI50 in [1] was 49.5 µM (inactive); in assay [2], > 100 µM (inactive); in assay [3], 52.6 µM (inactive); in assay [4], 29.1 µM (inactive); in assay [5] it was 61.2 µM (inactive); in assay [6], 34.8 µM (inactive). Besides, the GI50 was 18.4 µM (inactive) in [7]; > 100 µM (inactive) in [8]; 40.6 µM (inactive) in [9]; > 100 µM (inactive) in assay [10]; 26.5 µM (inactive) in assay [11]; > 100 µM (inactive) in assay [12]. Besides, the GI50 in assay [13] is 30.5 µM (inactive); in assay [14] it was 31.8 µM (inactive); in assay [15] it was 47.2 µM (inactive); in assay [16], > 100 µM (inactive); in [17], 26.2 µM (inactive); in assay [18], > 100 µM (inactive). Further, in assay [20], the GI50 is > 100 µM (inactive).

Regarding `CC(=O)Oc1ccc(-c2cc3ccccc3oc2=O)cc1OC(C)=O`, the GI50 in assay [1] is 28.2 µM (inactive); in assay [2], 59.2 µM (inactive); in [3] it was 43.5 µM (inactive); in [4] it was 21.6 µM (inactive); in [5], 25.8 µM (inactive); in [7], 21.7 µM (inactive). Moreover, the GI50 in [8] is 12.7 µM (inactive); in assay [9], 53.7 µM (inactive); in [10], 1.89 µM (inactive); in assay [11], 27.9 µM (inactive); in [12], 5.3 µM (inactive); in [13] it was 28.6 µM (inactive). Also, the GI50 in [15] was 24.4 µM (inactive); in assay [16], 35.9 µM (inactive); in assay [17] it was 22.1 µM (inactive); in assay [18], 33.3 µM (inactive); in assay [19], 32.7 µM (inactive).

For the molecule `COc1ccc(N[S+]([O-])CCc2ccccc2)cc1` (centres undefined), the GI50 in assay [1], in assay [2], in assay [3], in assay [4], in assay [5] and in assay [6] was > 100 µM (inactive) each time. The GI50 in assay [7], in assay [8], in [9], in assay [10], in [11] and in assay [12] was > 100 µM (inactive) each time. Further, the GI50 is > 100 µM (inactive) in assay [13]; 4.35 µM (inactive) in assay [14]; > 100 µM (inactive) in [15]; 23.4 µM (inactive) in [16]; > 100 µM (inactive) in [17]; > 100 µM (inactive) in [18]. Further, the GI50 in assay [19] is > 100 µM (inactive).

With `CCOC(=O)C1(O)C(=O)C2=C3C(=O)OC(C4OC(=O)c5c(c(O)c(O)c(O)c5C31)-c1c(cc(O)c(O)c1O)C(=O)OC1COC(=O)c3cc(O)c(O)c(O)c3-c3c(cc(O)c(O)c3O)C(=O)OC14)[C@@H]2O` (some centres undefined), the GI50 in assay [1] was 19.1 µM (inactive); in assay [2] it was 18.7 µM (inactive); in assay [3] it was > 100 µM (inactive); in assay [4], 21.8 µM (inactive); in assay [5], 14.9 µM (inactive); in assay [6], 13 µM (inactive). Further, the GI50 in assay [7] was 19.2 µM (inactive); in assay [8] it was 28.5 µM (inactive); in [9], 17 µM (inactive); in assay [10], 19.1 µM (inactive); in assay [11], 22.4 µM (inactive); in assay [12] it was 17.2 µM (inactive). For the same molecule, the GI50 was 15.2 µM (inactive) in assay [13]; 61.8 µM (inactive) in assay [14]; 28.5 µM (inactive) in assay [15]; 30.8 µM (inactive) in [16]; 20.7 µM (inactive) in [18]; 19.2 µM (inactive) in assay [19]. For the same molecule, the GI50 in assay [20] is 20 µM (inactive).

As for `O=C1C(Cl)C2(CC(/C=C/c3ccccc3)=NN2c2cccc(S(=O)(=O)O)c2)N1c1nc2ccccc2s1` (centres undefined), the GI50 was 16.7 µM (inactive) in [2]; 44.8 µM (inactive) in assay [3]; 17.2 µM (inactive) in assay [4]; 24.2 µM (inactive) in assay [5]; 9.46 µM (inactive) in assay [6]; 17.3 µM (inactive) in assay [7]. The GI50 in [8] is 13.8 µM (inactive); in assay [9], 17.2 µM (inactive); in assay [10], 14.9 µM (inactive); in assay [11], 20 µM (inactive); in [12], 12.4 µM (inactive); in assay [13], 12.2 µM (inactive). Moreover, the GI50 in assay [15] was 17.8 µM (inactive); in [16], 30.9 µM (inactive); in assay [17], 16.9 µM (inactive); in assay [18], 28.8 µM (inactive); in assay [19] it was 14.7 µM (inactive); in assay [20], 14 µM (inactive).

Turning to `NCCOCC(N)C(=O)O` (centres undefined), the GI50 in assay [1], in [2], in assay [3], in assay [4], in assay [5] and in assay [6] was > 100 µM (inactive) each time. Moreover, the GI50 in assay [7] is > 100 µM (inactive); in assay [9] it was > 100 µM (inactive); in [10] it was > 100 µM (inactive); in [11], > 100 µM (inactive); in assay [12], > 100 µM (inactive) and > 72.8 µM (inactive); in [13], > 100 µM (inactive). The GI50 in [14], in assay [15], in assay [16], in assay [17], in [18] and in assay [19] was > 100 µM (inactive) each time. In [20], the GI50 was > 100 µM (inactive).
